# Measured values published in ChEMBL document CHEMBL1629591, “Codetection of blaOXA-23-like gene (blaOXA-133) and blaOXA-58 in Acinetobacter radioresistens: report from the SENTRY antimicrobial surveillance program” (2009).
# What was measured:
# Assay type in all cases: functional
# [1] = system: Acinetobacter radioresistens; assay: Antimicrobial activity against plasmid encoded beta-lactamase OXA-58 deficient Acinetobacter radioresistens by CLSI method
# [2] = system: Acinetobacter radioresistens; assay: Antimicrobial activity against Acinetobacter radioresistens 251-39C expressing beta-lactamase OXA-133 by CLSI method
# [3] = system: Acinetobacter radioresistens; assay: Antimicrobial activity against plasmid encoded beta-lactamase OXA-58 deficient Acinetobacter radioresistens by CLSI method in presence of beta-lactamase inhibitor clavulanate
# [4] = system: Acinetobacter radioresistens; assay: Antimicrobial activity against Acinetobacter radioresistens 251-39C expressing beta-lactamase OXA-133 by CLSI method in presence of beta-lactamase inhibitor clavulanate
# [5] = system: Acinetobacter radioresistens; assay: Antimicrobial activity against Acinetobacter radioresistens 251-39C expressing beta-lactamase OXA-133 by CLSI method in presence of beta-lactamase inhibitor Sulbactam
# [6] = system: Acinetobacter radioresistens; assay: Antimicrobial activity against plasmid encoded beta-lactamase OXA-58 deficient Acinetobacter radioresistens by CLSI method in presence of beta-lactamase inhibitor Sulbactam
# [7] = system: Acinetobacter radioresistens; assay: Antimicrobial activity against Acinetobacter radioresistens 251-39C expressing beta-lactamase OXA-133 by CLSI method in presence of beta-lactamase inhibitor Tazobactam
# [8] = system: Acinetobacter radioresistens; assay: Antimicrobial activity against plasmid encoded beta-lactamase OXA-58 deficient Acinetobacter radioresistens by CLSI method in presence of beta-lactamase inhibitor Tazobactam
Molecule,MIC [1],MIC [2],other results
C[C@@H](O)[C@H]1C(=O)N2C(C(=O)O)=C(S[C@@H]3CN[C@H](C(=O)N(C)C)C3)[C@H](C)[C@H]12 [MEROPENEM],0.25 µg/mL,1 µg/mL,
C[C@@H](O)[C@H]1C(=O)N2C(C(=O)O)=C(SCCNC=N)C[C@H]12 [IMIPENEM ANHYDROUS],0.25 µg/mL,8 µg/mL,
CO[C@@]1(NC(=O)Cc2cccs2)C(=O)N2C(C(=O)O)=C(COC(N)=O)CS[C@@H]21 [CEFOXITIN],8 µg/mL,8 µg/mL,
CN(C)[C@@H]1C(O)=C(C(N)=O)C(=O)[C@@]2(O)C(O)=C3C(=O)c4c(O)cccc4[C@@](C)(O)[C@H]3C[C@@H]12 [TETRACYCLINE],≤ 2 µg/mL,≤ 2 µg/mL,
C[C@@H](O)[C@H]1C(=O)N2C(C(=O)O)=C(S[C@@H]3CN[C@H](C(=O)Nc4cccc(C(=O)O)c4)C3)[C@H](C)[C@H]12,1 µg/mL,4 µg/mL,
CO/N=C(\C(=O)N[C@@H]1C(=O)N2C(C(=O)O)=C(CSc3nc(=O)c(O)nn3C)CS[C@H]12)c1csc(N)n1 [CEFTRIAXONE],2 µg/mL,4 µg/mL,
NC[C@H]1O[C@H](O[C@H]2[C@H](O)[C@@H](O[C@H]3O[C@H](CO)[C@@H](O)[C@H](N)[C@H]3O)[C@H](N)C[C@@H]2N)[C@H](N)C[C@@H]1O [TOBRAMYCIN],2 µg/mL,2 µg/mL,
NCC[C@H](O)C(=O)N[C@@H]1C[C@H](N)[C@@H](O[C@H]2O[C@H](CN)[C@@H](O)[C@H](O)[C@H]2O)[C@H](O)[C@H]1O[C@H]1O[C@H](CO)[C@@H](O)[C@H](N)[C@H]1O [AMIKACIN],0.5 µg/mL,0.5 µg/mL,
POLYMYXIN B,< 0.5 µg/mL,< 0.5 µg/mL,
CC1(C)S[C@@H]2[C@H](NC(=O)[C@H](N)c3ccc(O)cc3)C(=O)N2[C@H]1C(=O)O [AMOXICILLIN],,,MIC [3]: 2 µg/mL; MIC [4]: 32 µg/mL
CC1(C)S[C@@H]2[C@H](NC(=O)[C@H](N)c3ccccc3)C(=O)N2[C@H]1C(=O)O [AMPICILLIN],,,MIC [5]: 1 µg/mL; MIC [6]: 1 µg/mL
CC1(C)S[C@@H]2[C@H](NC(=O)[C@H](C(=O)O)c3ccsc3)C(=O)N2[C@H]1C(=O)O [TICARCILLIN],,,MIC [3]: 4 µg/mL; MIC [4]: > 256 µg/mL
CC(C)(O/N=C(\C(=O)N[C@@H]1C(=O)N2C(C(=O)[O-])=C(C[n+]3ccccc3)CS[C@H]12)c1csc(N)n1)C(=O)O [CEFTAZIDIME],0.5 µg/mL,0.5 µg/mL,
CCN1CCN(C(=O)N[C@@H](C(=O)N[C@@H]2C(=O)N3[C@@H]2SC(C)(C)[C@@H]3C(=O)O)c2ccccc2)C(=O)C1=O [PIPERACILLIN],,,MIC [7]: 64 µg/mL; MIC [8]: 1 µg/mL
